In patent US9006243B2, “HIV inhibiting 6-substituted pyrimidines” (Janssen R&D Ireland, priority 2006, dated 2015):
Where two headings read alike, the source gives them in different places.

Columns and labels:
[1] = target: HIV strain MDR (L100I, K103N, Y181C, E138G, V179I, L2214F, V278V/I and A327A/V in HIV reverse transcriptase); assay: microbe, parasite or virus in culture; assay type: cell-based, HIV-1; conditions: for MDR pEC50 (−log EC50): MDR HIV strain (multiple RT mutations), MT4 LTR-EGFP cells, three days after infection; for EC50: Human immunodeficiency virus 1, 72 h, read-out: MDR pEC50 (−log EC50) (converted)
Source text: (§1) Image analysis allows very sensitive detection of viral infection.
“MDR” refers to a strain that contains mutations L100I, K103N, Y181C, E138G, V179I, L2214F, V278V/I and A327A/V in HIV reverse transcriptase.

[2] = system: HIV strain IIIB (wild type); assay: microbe, parasite or virus in culture; conditions: for EC50: Human immunodeficiency virus 1, IIIB, 72 h, read-out: IIIB pEC50 (−log EC50) (converted)
Method: Compounds of the invention were tested for their potency against wild type virus and clinically isolated HIV strains harboring one or more mutations associated with resistance to reverse transcriptase inhibitors. Antiviral activity was evaluated using a cellular assay performed according to the following procedure.
The human T-cell line MT4 was engineered with Green Fluorescent Protein (GFP) and a HIV-specific promoter, HIV-1 long terminal repeat (LTR). This cell line, designated MT4 LTR-EGFP, can be used for the in vitro evaluation of anti-HIV activity of investigational compounds. In HIV-1 infected cells, the Tat protein is produced, which upregulates the LTR promotor and eventually leads to stimulation of the GFP reporter production, allowing to measure ongoing HIV-infection fluorometrically.
Analogously, MT4 cells were engineered with GFP and the constitutional cytomegalovirus (CMV) promotor. […] Cytotoxic investigational compounds reduce GFP levels of mock-infected MT4 CMV-EGFP cells.
The ratio of CC50 to EC50 is defined as the selectivity index (SI) and is an indication of the selectivity of the anti-HIV activity of the inhibitor. The ultimate monitoring of HIV-1 infection and cytotoxicity was done using a scanning microscope. Image analysis allows very sensitive detection of viral infection. Measurements were done before cell necrosis, which usually takes place about five days after infection, in particular measurements were performed three days after infection.
The columns IIIB, L100I, etc. in the table list the pEC50 (−log EC50) values against various strains IIIB, L100I, etc.; pSI lists the −log SI values.
Strain IIIB is wild type HIV strain.

HIV strain K103N + Y181C = assay: microbe, parasite or virus in culture; assay type: cell-based, HIV-1; conditions: for K103N + Y181C pEC50 (−log EC50): HIV strain K103N + Y181C, MT4 LTR-EGFP cells, three days after infection; for EC50: Human immunodeficiency virus 1, 72 h, read-out: K103N + Y181C pEC50 (−log EC50) (converted)
Source text: as §1

HIV strain Y181C = assay: microbe, parasite or virus in culture; assay type: cell-based, HIV-1; conditions: for Y181C pEC50 (−log EC50): HIV strain Y181C, MT4 LTR-EGFP cells, three days after infection; for EC50: Human immunodeficiency virus 1, 72 h, read-out: Y181C pEC50 (−log EC50) (converted)
Source text: as §1

HIV strain L100I + K103N = assay: microbe, parasite or virus in culture; assay type: cell-based, HIV-1; conditions: for L100I + K103N pEC50 (−log EC50): HIV strain L100I + K103N, MT4 LTR-EGFP cells, three days after infection; for EC50: Human immunodeficiency virus 1, 72 h, read-out: L100I + K103N pEC50 (−log EC50) (converted)
Source text: as §1

[3] = wild type HIV strain IIIB, MT4 LTR-EGFP cells, GFP fluorescence, three days after infection

SMILES	MDR pEC50 (−log EC50) [1]	IIIB pEC50 (−log EC50) [2]	K103N + Y181C pEC50 (−log EC50) (HIV strain K103N + Y181C)	Y181C pEC50 (−log EC50) (HIV strain Y181C)	L100I + K103N pEC50 (−log EC50) (HIV strain L100I + K103N)	IIIB pEC50 (−log EC50) [2, 3]	EC50 [1]	EC50 [2]	melting point	EC50 (HIV strain K103N + Y181C)	EC50 (HIV strain Y181C)	EC50 (HIV strain L100I + K103N)
C=CCNCc1cc(Nc2c(C)cc(C=CC#N)cc2C)nc(Nc2ccc(C#N)cc2)n1 (mixture of isomers) [Compound 24]	5.75	9.16	7.84	8.14	7.31	–	–	–	–	–	–	–
Cc1cc(C=CC#N)cc(C)c1Nc1cc(CNCC2CCCO2)nc(Nc2ccc(C#N)cc2)n1 (mixture of isomers) [Compound 28]	5.68	–	7.82	7.81	7.27	8.68	–	–	–	–	–	–
Cc1cc(C=CC#N)cc(C)c1Nc1cc(CNCCCN2CCOCC2)nc(Nc2ccc(C#N)cc2)n1 (mixture of isomers) [Compound 29]	5.67	–	7.01	7.06	6.66	7.70	–	–	–	–	–	–
Cc1cc(C=CC#N)cc(C)c1Nc1cc(CNCc2ccncc2)nc(Nc2ccc(C#N)cc2)n1 (mixture of isomers) [Compound 30]	5.80	–	7.89	7.69	7.56	8.55	–	–	–	–	–	–
Cc1cc(C=CC#N)cc(C)c1Nc1cc(CNCc2cccs2)nc(Nc2ccc(C#N)cc2)n1 (mixture of isomers) [Compound 31]	5.48	–	7.71	7.48	7.13	8.41	–	–	–	–	–	–
Cc1cc(/C=C/C#N)cc(C)c1Nc1cc(-c2cccnc2)nc(Nc2ccc(C#N)cc2)n1 [Compound 1]	–	–	–	–	–	–	1780 nM	3.47 nM	180 °C	19.5 nM	11 nM	115 nM
C=CCOCc1cc(Nc2c(C)cc(/C=C/C#N)cc2C)nc(Nc2ccc(C#N)cc2)n1 [Compound 2]	4.95	–	7.15	7.74	7.12	8.44	–	–	–	–	–	–
COc1ccccc1C(O)c1cc(Nc2c(C)cc(/C=C/C#N)cc2C)nc(Nc2ccc(C#N)cc2)n1 (stereo not drawn) [Compound 3]	–	–	–	–	–	–	2950 nM	7.24 nM	–	263 nM	105 nM	95.5 nM
COCCNC(=O)c1cc(Nc2c(C)cc(/C=C/C#N)cc2C)nc(Nc2ccc(C#N)cc2)n1 [Compound 4]	–	–	–	–	–	–	2820 nM	3.09 nM	130 °C	10.2 nM	13.8 nM	–
Cc1cc(/C=C/C#N)cc(C)c1Nc1cc(C(=O)NCCF)nc(Nc2ccc(C#N)cc2)n1 [Compound 5]	–	–	–	–	–	–	1410 nM	1.58 nM	> 250 °C	4.37 nM	6.31 nM	25.1 nM
Cc1cc(/C=C/C#N)cc(C)c1Nc1cc(C(=O)NCCC#N)nc(Nc2ccc(C#N)cc2)n1 [Compound 6]	–	–	–	–	–	–	1860 nM	8.91 nM	250 °C	–	20 nM	40.7 nM
Cc1cc(/C=C/C#N)cc(C)c1Nc1cc(C(=O)NCc2ccncc2)nc(Nc2ccc(C#N)cc2)n1 [Compound 7]	–	–	–	–	–	–	2340 nM	4.17 nM	202 °C	17.8 nM	16.6 nM	–
Cc1cc(/C=C/C#N)cc(C)c1Nc1cc(C(=O)NCc2ccco2)nc(Nc2ccc(C#N)cc2)n1 [Compound 8]	–	–	–	–	–	–	8130 nM	5.5 nM	256 °C	31.6 nM	18.6 nM	85.1 nM
Cc1cc(/C=C/C#N)cc(C)c1Nc1cc(C(=O)c2nccs2)nc(Nc2ccc(C#N)cc2)n1 [Compound 10]	–	–	–	–	–	–	562 nM	2.82 nM	–	10.7 nM	3.47 nM	4.79 nM
Cc1cc(/C=C/C#N)cc(C)c1Nc1cc(C(O)c2nccs2)nc(Nc2ccc(C#N)cc2)n1 (stereo not drawn) [Compound 11]	–	–	–	–	–	–	692 nM	1.82 nM	147 °C	19.1 nM	4.07 nM	6.31 nM
Cc1cc(/C=C/C#N)cc(C)c1Nc1cc(CN2CCN(C)CC2)nc(Nc2ccc(C#N)cc2)n1 [Compound 13]	5.59	–	7.68	7.79	7.20	8.54	–	–	–	–	–	–
Cc1cc(C=CC#N)cc(C)c1Nc1cc(CN(C)CC#N)nc(Nc2ccc(C#N)cc2)n1 [Compound 21]	5.70	–	7.71	7.73	7.16	8.47	–	–	–	–	–	–
CCOP(=O)(OCC)OCc1cc(Nc2c(C)cc(/C=C/C#N)cc2C)nc(Nc2ccc(C#N)cc2)n1 [Compound 32]	6.40	–	7.50	7.60	7.20	8.50	–	–	–	–	–	–
Cc1cc(/C=C/C#N)cc(C)c1Nc1cc(COC(N)=O)nc(Nc2ccc(C#N)cc2)n1 [Compound 33]	6.20	–	8.00	7.70	7.10	8.40	–	–	–	–	–	–
Cc1cc(/C=C/C#N)cc(C)c1Nc1cc(/C=N/O)nc(Nc2ccc(C#N)cc2)n1 [Compound 34]	–	–	–	–	–	–	501 nM	3.98 nM	220 °C	3.98 nM	10 nM	12.6 nM
